Earlier results, collected in PubChem BioAssay AID1259409 (Chemical Carcinogenesis Research Information System (CCRIS), 2018).
“And” between values parts separate entries of the source, which are not always exact repeats. Equal values may be shown once.

Test system: rodent chemically induced tumor inhibition, incidence and multiplicity
Assay: CCRIS tumor inhibitor studies
Settings: Species: MOUSE

CC1(C)O[C@@H]2C[C@H]3[C@@H]4C[C@H](F)C5=CC(=O)C=C[C@]5(C)[C@@]4(F)[C@@H](O)C[C@]3(C)[C@]2(C(=O)CO)O1
tumour outcome (control, treated, inhibition, significance) (Carcinogen: 3-METHYLCHOLANTHRENE, 56-49-5, Dose [Inhibitor]: 1 UG IN ACETONE 2/WK FOR 23 WK BEGINNING 1 WK POST CARCINOGEN DOSE (STUDY DURATION: 24 WK), Route [Inhibitor]: DERMAL, Strain/Sex: CD-1/MALE, Target Tissue: Type of Lesion: SKIN: TUMOR, Dose [Carcinogen]: 600 UG IN ACETONE ONCE, Promoter: NONE USED): 10%, 5%, 50%, not calculated
tumour outcome (control, treated, inhibition, significance) (Carcinogen: 3-METHYLCHOLANTHRENE, 56-49-5, Dose [Inhibitor]: 10 UG IN ACETONE 2/WK FOR 23 WK BEGINNING 1 WK POST CARCINOGEN DOSE (STUDY DURATION: 24 WK), Route [Inhibitor]: DERMAL, Strain/Sex: CD-1/MALE, Target Tissue: Type of Lesion: SKIN: TUMOR, Dose [Carcinogen]: 600 UG IN ACETONE ONCE, Promoter: NONE USED): 10%, 45%, -350%, not calculated
tumour outcome (control, treated, inhibition, significance) (Carcinogen: 7,12-DIMETHYLBENZ[A]ANTHRACENE, 57-97-6, Dose [Inhibitor]: 0, 0.5 NMOL IN 200 µL ACETONE APPLIED 30 MIN PRIOR TO EACH PROMOTER DOSE 2/WK FOR 25 WK BEGINNING 1 WK POST CARCINOGEN D, Route [Inhibitor]: DERMAL, Strain/Sex: CD-1/FEMALE, Target Tissue: Type of Lesion: SKIN: PAPILLOMA, Dose [Carcinogen]: 200 NMOL IN 200 µL ACETONE ONCE, Promoter: 12-O-TETRADECANOYLPHORBOL-13-ACETATE, 16561-29-8): 90%, 40%, 56%, not calculated
tumour outcome (control, treated, inhibition, significance) (Carcinogen: 7,12-DIMETHYLBENZ[A]ANTHRACENE, 57-97-6, Dose [Inhibitor]: 0, 0.5 NMOL IN 200 µL ACETONE APPLIED 30 MIN PRIOR TO EACH PROMOTER DOSE 2/WK FOR 25 WK BEGINNING 1 WK POST CARCINOGEN D, Route [Inhibitor]: DERMAL, Strain/Sex: CD-1/FEMALE, Target Tissue: Type of Lesion: SKIN: PAPILLOMA, Dose [Carcinogen]: 200 NMOL IN 200 µL ACETONE ONCE, Promoter: MIREX, 2385-85-5): 100%, 97%, 3%, not significant
tumour outcome (control, treated, inhibition, significance) (Carcinogen: 7,12-DIMETHYLBENZ[A]ANTHRACENE, 57-97-6, Dose [Inhibitor]: 0, 2 NMOL IN 200 µL ACETONE APPLIED 30 MIN PRIOR TO EACH PROMOTER DOSE 2/WK FOR 25 WK BEGINNING 1 WK POST CARCINOGEN DOS, Route [Inhibitor]: DERMAL, Strain/Sex: CD-1/FEMALE, Target Tissue: Type of Lesion: SKIN: PAPILLOMA, Dose [Carcinogen]: 200 NMOL IN 200 µL ACETONE ONCE, Promoter: 12-O-TETRADECANOYLPHORBOL-13-ACETATE, 16561-29-8): 90%, 11%, 88%, not calculated
tumour outcome (control, treated, inhibition, significance) (Carcinogen: 7,12-DIMETHYLBENZ[A]ANTHRACENE, 57-97-6, Dose [Inhibitor]: 0, 2 NMOL IN 200 µL ACETONE APPLIED 30 MIN PRIOR TO EACH PROMOTER DOSE 2/WK FOR 25 WK BEGINNING 1 WK POST CARCINOGEN DOS, Route [Inhibitor]: DERMAL, Strain/Sex: CD-1/FEMALE, Target Tissue: Type of Lesion: SKIN: PAPILLOMA, Dose [Carcinogen]: 200 NMOL IN 200 µL ACETONE ONCE, Promoter: MIREX, 2385-85-5): 100%, 92%, 8%, not calculated

COc1ccc(O)c(C(C)(C)C)c1
tumour outcome (control, treated, inhibition, significance) (Carcinogen: BENZO[A]PYENE, 50-32-8, Dose [Inhibitor]: 0.28 MMOL/G DIET DAILY FOR 6 WK STARTING 14 D PRIOR TO THE FIRST UNTIL 1 D AFTER LAST CARCINOGEN DOSE FOLLOWED BY AN OBS, Route [Inhibitor]: ORAL, Strain/Sex: STRAIN-A/FEMALE, Target Tissue: Type of Lesion: LUNG: ADENOMA, Dose [Carcinogen]: 3 MG IN 0.2 ML COTTONSEED OIL GIVEN 3X AT 2 WK INTERVALS, Promoter: NONE USED): 100%, 100%, 0%, not significant
tumour outcome (control, treated, inhibition, significance) (Carcinogen: BENZO[A]PYRENE, 50-32-8, Dose [Inhibitor]: 0.03 MMOL/G OF DIET DAILY STARTING 7 D BEFORE AND CONTINUING THROUGH 3 D AFTER CARCINOGEN TREATMENT FOLLOWED BY OBSERVAT, Route [Inhibitor]: ORAL, Strain/Sex: ICR/FEMALE, Target Tissue: Type of Lesion: FORESTOMACH: NEOPLASM, Dose [Carcinogen]: 1 MG IN 0.2 ML CORN OIL 2/WK FOR 4 WK, Promoter: NONE USED): 90%, 79%, 12%, not significant and 94%, 79%, 16%, not significant
